Paper PMC3901304 (ACS medicinal chemistry letters, 2013)

System: T. gondii cells in culture
Test: Toxoplasma cell culture study
Format: cell-based, Toxoplasma gondii
Settings: for T. gondii in cells at Day 4: no drug control 1140000; for T. gondii in media at Day 4: no drug control 3710000

SMILES	T. gondii in cells at Day 4 (compound at 5 μM)	T. gondii in media at Day 4 (compound at 5 μM)	T. gondii in cells at Day 4 (PM at 3 μM)	T. gondii in media at Day 4 (PM at 3 μM)	effect on T. gondii in culture compared with PM (3 at 5 μM versus PM at 3 μM)
Nc1nc2[nH]c3cccc(Sc4ccccc4)c3c2c(=O)[nH]1 [Compound 2]	140000	100000	–	–	–
CCc1nc(N)nc(N)c1-c1ccc(Cl)cc1 [PM, pyrimethamine, reference compound]	–	–	<2500	<25000	–
Nc1nc2[nH]c3cccc(Sc4ccc5ccccc5c4)c3c2c(=O)[nH]1 [Compound 1]	340000	2350000	–	–	–
Nc1nc2[nH]c3cccc(Sc4cccc5ccccc45)c3c2c(=O)[nH]1 [Compound 3]	<2500	<25000	–	–	equivalent to PM at 3 μM
